Assay results as given in publication PMC10610505, “Synthesis and Biological Evaluation of Some New 3-Aryl-2-thioxo-2,3-dihydroquinazolin-4(1H)-ones and 3-Aryl-2-(benzylthio)quinazolin-4(3H)-ones as Antioxidants; COX-2, LDHA, α-Glucosidase and α-Amylase Inhibitors; and Anti-Colon Carcinoma and Apoptosis-Inducing Agents” (Pharmaceuticals, 2023).
Several values for one entry are separate records, joined by “and”; a condition that tells them apart may be missing. Identical values can stand only once. Like-named read-outs stand apart in the source and are kept apart here.

Legend:
caspase-9 = assay: Western blot of caspase-9 in cell lysates; assay type: cell-based, human; settings: 50 µg/mL, 48 h
Protocol: (§1) Furthermore, in order to confirm the implication of these compounds in the apoptotic pathways trigged by caspases, the proteins levels of caspases 8 and 9 were evaluated using Western blot analysis for the HCT-116 and LoVo carcinoma cells lysates after treatment with compounds 3a and 3f (50 µg/mL for 48 h); the untreated cells were used as a negative control.
(§2) In order to determine the levels of production of caspases 8 and 9 by the treated carcinoma cells, Western blot analysis was carried out using a FLAG® Western Detection Kit (Agilent Technologies, USA). Exponentially growing HCT-116 and LoVo cells were treated with 50 µg/mL of derivatives 3a and 3f for 48 h. After incubation, the cells were harvested and lysed using a Lysis buffer consisting of 10 mM of Tris, 100 mM of NaCl, 25 mM of ethylenediaminetetra aceticacid (EDTA), 25 mM of Ethylene glycol bis(2-aminoethyl)tetraacetic acid (EGTA), 0.1% Sodium dodecyl sulfate (SDS), 1% (v/v) Triton X-100 and 2% (v/v) NP-40 (pH 7.4), with a 1:200 protease inhibitor cocktail (Sigma-Adrich) and a 1:300 phosphatase inhibitor cocktail tablet (Roche Applied Science, Mannheim, Germany). The protein concentrations of each sample were determined calorimetrically using the Bradford method before proceeding to carry out the Western blotting. Equal amounts (20 µg) of the protein samples were mixed and boiled with SDS Loading buffer for 10 min, allowed to cool on ice and then loaded into SDS-polyacrylamide gel and separated using a Cleaver electrophoresis unit (Cleaver, Warwickshire, UK), before being transferred onto polyvinylidene fluoride (PVDF) membranes (Bio-Rad, USA) for 30 min using a Semi-dry Electroblotter (Biorad, USA) at 2.5 A and 25 V for 30 min. The membrane was blocked with 5% nonfat dry milk in TBS-T for two hours at room temperature, in order to reduce non-specific protein interactions between the membrane and the antibody. The blocked membrane was incubated overnight at 4 °C with primary antibodies (Cell Signaling Technology, Massachusetts, USA) and β-actin (Sigma). […] Briefly, the membranes were incubated for 1 min with a mixture of equal volumes of ECL solution A and ECL solution B. The chemiluminescent signals were captured using a CCD camera-based imager (Chemi Doc imager, Biorad, USA), and the bands’ intensities were then measured using ImageLab v3.0 (Bio-Rad). […] The proteins were detected using an enhanced chemiluminescence (ECL) detection system (Thermo Fischer Scientific, USA). The intensities of the bands were quantified using the NIH ImageJ software v3.0.1 (http://rsb.info.nih.gov/ij/).

LoVo carcinoma cells = assay: Annexin-V-FITC/PI flow cytometry, LoVo; assay type: cell-based, human; settings: 50 µg/mL, 48 h; for Early apoptotic cells (Annexin-V positive, PI negative): lower right quadrant; for Late apoptotic cells (Annexin-V and PI positive): upper right quadrant
Protocol: In order to examine the effect of compounds 3a and 3f on the apoptosis of HCT-116 and LoVo carcinoma cells, the Annexin-V-FITC probe was used and flow cytometry analyses were performed (Figure 7).
The percentages of the early apoptotic cells (Annexin-V positive and propidium iodide, PI negative) and late apoptotic cells (both Annexin-V and PI positive) were then calculated. Annexin V-PI staining was also performed to distinguish apoptotic and necrotic cell deaths.
The distribution of early and late apoptotic cells after treatment with compounds 3a and 3f was carried out using an Annexin V-FITC Apoptosis Detection Kit (BioVisionResearch Products—USA). HCT-116 and LoVo carcinoma cells were seeded in 60 mm^2 culture dishes and treated with the vehicles DMSO, and compounds 3a and 3f (50 µg/mL) for 48 h. Cells were then harvested, washed twice with PBS and resuspended in an Annexin-V binding buffer (BioVisionResearch Products—USA). Finally, the cells were stained with Annexin V-FITC and propidium iodide (PI). The fluorescent intensity of the stained cancer cells was determined using an FITC signal detector (usually FL1) and PI staining with the phycoerythrin emission signal detector (through quadrant statistics for necrotic and apoptotic cell populations).

[1] = Viability assay (LDH release), HUVEC; assay type: cell-based, human; settings: human
Protocol: The samples were diluted in Dulbecco’s Modified Eagle’s Medium, consisting of 10% fetal bovine serum (FBS), added to cells grown and cultured for 24 h in a 5% CO2-humidified incubator at 37 °C. Thereafter, the activity of lactate dehydrogenase released from damaged cells was determined in the collected supernatant aliquots using an ELISA end-point assay (Benchmark Plus, Bio-Rad, CA, USA); 0.1% Triton X-100 in the assay medium and the assay medium only were used as the positive and negative controls, respectively. Cell viability was expressed as a relative percentage of the OD values (at 550 nm) for compound-treated cells (final concentration of 200 µg /mL) and the negative control, which was shown as the mean % ± SD (n = 3). The results of the viability assays for the potential cytotoxic candidates were compared with the % of viable human umbilical vein endothelial cells (HUVEC) at the same concentration. These cells were grown in Dulbecco’s Modified Eagle’s Medium (PAN-Biotech; Barcelona, Spain) containing 10% FBS (Sigma Aldrich; St. Quentin-Fallavier, France), 2 mM Glutamine (Sigma Aldrich), 100 units/mL penicillin and […] streptomycin (Life Technologies; Paisley, UK).

[2] = test system: HCT-116 human colon carcinoma cells; assay: Viability assay (LDH release), HCT-116; assay type: cell-based; settings: for viability at 200 µg/mL: HCT-116, 48 h, read-out: Mean % of viable cells ± SD, HCT-116
Procedure, shortened: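 HCT-116 human colon carcinoma cells were cultured for 24 h at 37 °C in a humidified 5% CO2 incubator. Samples diluted in Dulbecco’s Modified Eagle’s Medium with 10% FBS were then added. Lactate dehydrogenase released from damaged cells was measured in supernatants by ELISA end-point reading at 550 nm. Controls were 0.1% Triton X-100 (positive) and assay medium alone (negative).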

caspase-8 = assay: Western blot of caspase-8 in cell lysates; assay type: cell-based, human; settings: 50 µg/mL, 48 h
Protocol: as §1, §2

[3] = Homo sapiens, HCT-116, from concentration–response curves
[4] = from concentration–response curves

| Compound | Increase in expression level of caspase-9 (caspase-9; lysates of HCT-116) | Increase in expression level of caspase-9 (caspase-9; lysates of LoVo) | Early apoptotic cells (Annexin-V positive, PI negative) (LoVo carcinoma cells) | Late apoptotic cells (Annexin-V and PI positive) (LoVo carcinoma cells) | viability at 200 µg/mL ([1]; human umbilical vein endothelial cells (HUVEC), 200 µg/mL, read-out: Mean % of viable cells ± SD, HUVEC) | viability at 200 µg/mL ([2]; Homo sapiens) | IC50 [2, 3] | IC50 [2, 4] | Increase in expressional level of caspase 8 (caspase-8; lysates of HCT-116) | Increase in expressional level of caspase 8 (caspase-8; lysates of LoVo) | viability at 200 µg/mL [1] |
| --- | --- | --- | --- | --- | --- | --- | --- | --- | --- | --- | --- |
| O=c1c2cc(Cl)ccc2[nH]c(=S)n1-c1cccc(C(F)(F)F)c1 [Compound 3a, 6-Chloro-2-thioxo-3-(3-trifluoromethyl-phenyl)-2,3-dihydro-1H-quinazolin-4-one] | 3.6 times | 7.2 times | 18.29% | 11.01% | 97 ± 2.65% | 26.8 ± 1.26% | 298 µM and 106 µg/mL | 298 µM | 2.3 times | 5.1 times | – |
| O=c1c2cc(Cl)ccc2[nH]c(=S)n1-c1ccc([N+](=O)[O-])cc1 [Compound 3f, 6-Chloro-3-(4-nitro-phenyl)-2-thioxo-2,3-dihydro-1H-quinazolin-4-one] | 3.1 times | 4.8 times | 12.97% | 4.66% | – | 4.67 ± 0.577% | 324 µM and 108 µg/mL | 324 µM | 2.2 times | 4.1 times | 99.67 ± 0.577% |
